Data as given in patent US9458132B2, “Therapeutic compounds and compositions and their use as PKM2 modulators” (AGIOS PHARMACEUTICALS, INC., priority 2012, dated 2016).

Tests used:
PKR R510Q = PKR R510Q (Homo sapiens, UniProt P30613, R510Q); experiment: PKR mutant assay, PKR R510Q AC50; type: biochemical; conditions: mutant PKR R510Q enzyme
Procedure: (§1) • PKR or PKR mutant enzyme solution was diluted in assay buffer. • 2 μL of test compound was added into wells first, and then 180 μL reaction mix was added. • Reactions mixture with test compound was assembled except for ADP, and plates were stored for 60 minutes at room temperature. • 20 uL ADP was added to start reaction at room temperature and reaction progress was measured as changes in absorbance at 340 nm wavelength at room temperature.
Test Compound Preparation: • Test compound stock was made at 100x concentration in 100% DMSO (10 mM) • 1 to 3 dilutions were made for 11 points (i.e. 50 μl of first concentration added to 100 μl 100% DMSO to yield 3.33 mM, 50 μl of this added to 100 μl DMSO to yield 1.11 mM, and so forth) • 1 to 100 dilution into assay (2 μl in 200 μl) yielded starting concentration of 100 μM, decreasing 3 fold for 11 points • Assay Buffer: 100 mM KCl, 50 mM Tris 7.5, 5 mM MgCl2, 1 mM DTT, 0.03% BSA • Reaction Mixture: PKR mutant enzyme: 80-400 ng/well; ADP: 0.22-1.65 mM; PEP: 0.1-0.5 mM; NADH:180 uM; LDH: 0.5 units (Sigma#59023); DTT: 1 mM; BSA: 0.03%. […]

PKR R532W = PKR R532W (Homo sapiens, UniProt P30613, R532W); experiment: PKR mutant assay, PKR R532W AC50; type: biochemical; conditions: mutant PKR R532W enzyme
Chain of PKR R532W (P30613 whole entry R532W): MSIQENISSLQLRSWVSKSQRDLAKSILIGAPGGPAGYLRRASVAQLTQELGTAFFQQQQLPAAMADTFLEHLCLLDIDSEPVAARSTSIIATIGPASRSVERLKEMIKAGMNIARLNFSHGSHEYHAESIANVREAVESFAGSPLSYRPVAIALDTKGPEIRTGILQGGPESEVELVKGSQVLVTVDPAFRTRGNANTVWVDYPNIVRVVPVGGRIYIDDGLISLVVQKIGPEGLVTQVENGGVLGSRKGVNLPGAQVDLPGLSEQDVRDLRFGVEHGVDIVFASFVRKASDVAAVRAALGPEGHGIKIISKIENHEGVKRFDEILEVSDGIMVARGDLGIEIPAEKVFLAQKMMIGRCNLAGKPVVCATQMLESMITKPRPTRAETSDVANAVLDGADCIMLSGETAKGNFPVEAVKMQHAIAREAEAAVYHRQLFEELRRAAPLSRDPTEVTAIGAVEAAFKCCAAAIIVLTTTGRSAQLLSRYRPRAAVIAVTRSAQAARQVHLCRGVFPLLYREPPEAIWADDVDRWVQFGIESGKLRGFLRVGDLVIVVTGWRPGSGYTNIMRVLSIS
Procedure: as §1
(§2) Test Compound Preparation: • Test compound stock was made at 100x concentration in 100% DMSO (10 mM) • 1 to 3 dilutions were made for 11 points (i.e. 50 μl of first concentration added to 100 μl 100% DMSO to yield 3.33 mM, 50 μl of this added to 100 μl DMSO to yield 1.11 mM, and so forth) • 1 to 100 dilution into assay (2 μl in 200 μl) yielded starting concentration of 100 μM, decreasing 3 fold for 11 points • Assay Buffer: 100 mM KCl, 50 mM Tris 7.5, 5 mM MgCl2, 1 mM DTT, 0.03% BSA • Reaction Mixture: PKR mutant enzyme: 80-400 ng/well; ADP: 0.22-1.65 mM; PEP: 0.1-0.5 mM; NADH:180 uM; LDH: 0.5 units (Sigma#59023); DTT: 1 mM; BSA: 0.03%.
(§3) A compound described herein was diluted with DMSO and tested at 1 μM concentration. The enzyme was diluted in 1× Buffer: (100 mM KCl, 50 mM Tris 7.5, 5 mM MgCl2, 1 mM DTT, 0.03% BSA). 2 μL of compound solution was first added into wells, and then 180 μL of enzyme solution was added. Assays were assembled except for ADP, and plates were stored for 60 minutes at RT. 20 μL ADP was added to start the assay and assay output was evaluated using OD340 at SpectraMax. The assay was run at room temperature. • Final concentration: PKR R532W (100 ng/well), Tris pH 7.5 (50 mM), KCl (100 mM), MgCl2 (5 mM), ADP (0.36 mM), PEP (0.1 mM), NADH (180 μM), LDH (0.5 units, Sigma 59023), DTT (1 mM) and BSA (0.03%).

PKR WT [1] = biological target: T1, PKR WT (Homo sapiens, UniProt P30613); experiment: PKR WT enzymatic assay AC50; type: biochemical; conditions: wild type PKR
T1 sequence (P30613 whole entry): as the sequence (P30613 whole entry R532W) above, with W532R counted along it
Procedure: as §1, §2
as §3, with “wt” for “R532W”, “(0.48” for “(0.36”, “(0.15” for “(0.1”

PKR WT [2] = biological target: T1, PKR WT; experiment: PKR WT cell based assay AC50; conditions: wild type PKR

Chain of PKR R510Q (P30613 whole entry R510Q): as the sequence (P30613 whole entry R532W) above, with R510Q, W532R counted along it

Row | Compound | AC50 (PKR R510Q) [nM] | AC50 (PKR R532W) [nM] | AC50 (PKR WT [1]) [nM] | AC50 (PKR WT [2]) [nM]
1 | O=C(c1ccc(NS(=O)(=O)c2cccc3cccnc23)cc1)N1CC(O)(c2cccc(C(F)(F)F)c2)C1 [Compound 9, N-(4-(3-hydroxy-3-(3-(trifluoromethyl)phenyl)azetidine-1-carbonyl)phenyl)quinoline-8-sulfonamide] | < 100 | < 100 | < 100 | < 100
2 | O=C(c1ccc(NS(=O)(=O)c2cccc3cccnc23)cc1)N1CC(O)(c2ccccc2Cl)C1 [Compound 5, N-(4-(3-(2-chlorophenyl)-3-hydroxyazetidine-1-carbonyl)phenyl)quinoline-8-sulfonamide] | 101 to 1000 | < 100 | < 100 | 101 to 1000
3 | Cc1ncccc1C1(O)CN(C(=O)c2ccc(NS(=O)(=O)c3cccc4cccnc34)cc2)C1 [Compound 19, N-(4-(3-hydroxy-3-(2-methylpyridin-3-yl)azetidine-1-carbonyl)phenyl)quinoline-8-sulfonamide] | 101 to 1000 | < 100 | 101 to 1000 | 101 to 1000
4 | Cc1ccccc1C1(O)CN(C(=O)c2ccc(NS(=O)(=O)c3cccc4cccnc34)cc2)C1 [Compound 15, N-(4-(3-hydroxy-3-(o-tolyl)azetidine-1-carbonyl)phenyl)quinoline-8-sulfonamide] | 101 to 1000 | < 100 | < 100 | 101 to 1000
5 | O=C(c1ccc(NS(=O)(=O)c2cccc3c2OCCO3)cc1)N1CC(O)(Cc2ccccc2)C1 [Compound 53, N-(4-(3-benzyl-3-hydroxyazetidine-1-carbonyl)phenyl)-2,3-dihydrobenzo[b][1,4]dioxine-5-sulfonamide] | < 100 | < 100 | < 100 | < 100
6 | COc1ncccc1C1(O)CN(C(=O)c2ccc(NS(=O)(=O)c3cccc4cccnc34)cc2)C1 [Compound 20, N-(4-(3-hydroxy-3-(2-methoxypyridin-3-yl)azetidine-1-carbonyl)phenyl)quinoline-8-sulfonamide] | 101 to 1000 | 101 to 1000 | 101 to 1000 | 101 to 1000
7 | COc1ccccc1C1(O)CN(C(=O)c2ccc(NS(=O)(=O)c3cccc4cccnc34)cc2)C1 [Compound 2, N-(4-(3-hydroxy-3-(2-methoxyphenyl)azetidine-1-carbonyl)phenyl)quinoline-8-sulfonamide] | 101 to 1000 | < 100 | < 100 | 101 to 1000
8 | COc1cccc(C2(O)CN(C(=O)c3ccc(NS(=O)(=O)c4cccc5cccnc45)cc3)C2)c1 [Compound 61] | 101 to 1000 | < 100 | < 100 | < 100
